Experimental data published in PubChem BioAssay AID1918936 (Molecular Pharmacology Branch, DTP, NCI, 2023).
pIC50: −log10 of the molar value. “And” between values parts separate entries of the source, which are not always exact repeats. Equal entries are not always repeated.

Test system: 349418-098-R-PDC complex spheroid viability
Assay: Anticancer human tumor 349418-098-R-PDC patient-derived lung adenocarcinoma cell line growth inhibition
Settings: for viability, T/C: stronger effect = lower value
From the text: Multicellular complex tumor spheroid response to LSD1 Inhibitor Iadademstat in combination with a variety of drugs and investigational agents in selected tumor cell lines
The current study was undertaken to assess response to LSD1 inhibitors in combination with standard-of-care drugs and investigational agents in solid tumor complex spheroid models as well as in the K-562 leukemia. Complex spheroids include a stromal component modeled by human endothelial cells (HUVEC) and fibroblasts modeled by human mesenchymal stem cells (MSCs). The concentration ranges selected for each drug and investigational agent were based upon clinically achievable concentrations if the clinical Cmax of the agent was known.
Compounds. The drugs and investigational agents used in this study are listed on Table 1. All of the agents used, including staurosporine (NSC755774) and gemcitabine (NSC613327), were obtained from the Developmental Therapeutics Program, NCI. FDA-approved anticancer drugs are available from the NCI at http://dtp.nci.nih.gov/branches/dscb/oncology_drugset_explanation.html. Drugs and investigational agents were >95% pure by proton nuclear magnetic resonance (NMR) and liquid chromatography/mass spectrometry (LC/MS). Stock solutions were prepared at 400x in DMSO, stored at -70 degrees C, and diluted in fresh medium prior to their use. The final concentration of DMSO in cell culture wells never exceeded 0.25% (v/v). The FDA-approved anticancer drug set is available from the Developmental Therapeutics Program at https://dtp.cancer.gov/organization/dscb/obtaining/available_plates.htm. All drugs and investigational agents were tested over a range starting from a high concentration at or near the clinical Cmax and decreasing in half-log increments. If the clinical Cmax for an agent had not been determined, the highest concentration tested was 10 microM.
Cell Lines. The patient-derived cancer cell (PDC) lines: 292921-168-R-J2-PDC, K24384-001-R-PDC, and 521955-158-R2-J5-PDC pancreatic carcinomas, 556581-035-R-J1 ovarian carcinoma, 324938-238-R-J1-PDC, 855422-203-R-J1-PDC and 883617-216-R-J1-PDC urothelial bladder carcinomas, 743489-274-T-PDC renal cell carcinoma, 138582-R-J1 Merkel cell tumor, K60290-347-R-J1 and K57222-313-R-J1-PDC glioblastomas, 653999-131-R-J2-PDC, LG0703-F948-PDC, and 349418-098-R-PDC non-small cell lung carcinomas, 885512-296-R-J2-PDC, 171881-019-R-J1-PDC breast carcinomas and 186277-243-T-J2-PDC and 233499-124-R-J2-PDC colon carcinomas were obtained from the NCI Patient-Derived Models Repository (PDMR, https://pdmr.cancer.gov). The established cell lines NCI/ADR-RES (RRID:CVCL_14520 and OVCAR-5 (RRID:CVCL_1628) ovarian carcinomas, 786-O (RRID:CVCL_1051) and A498 (RRID:CVCL_A498) renal cell carcinoma, NCI-H211 (ATCC, cat. CRL-5824; RRID:CVCL_1529), NCI-H196 (ATCC, cat. CRL-5823, RRID:CVCL_1509), SW 1271 (ATCC, cat. CRL-2177, RRID:CVCL_1716) and NCI-H1876 (ATCC, cat. CRL-5902, RRID:CVCL_1503) small cell lung carcinomas, MDA-MB-231 (RRID:CVCL_0062) and MDA-MB-468 (RRID:CVCL_0419)breast carcinomas (10-12). Pooled donor human umbilical vein endothelial cells (HUVEC, Lonza, cat. CC-2519) and human mesenchymal stem cells (hMSC, Lonza, cat. PT-2501) were purchased from Lonza (Walkersville, MD).
Cell Culture. All cells were maintained in an incubator at 37 degrees C and 5% CO2 with 95% humidity. The PDC lines were cultured according to standard operating procedures established by the NCI PDMR (https://pdmr.cancer.gov). Briefly all PDCs were thawed and cultured in Matrigel-coated flasks prepared with a working solution of 1X Ham's F-12 nutrient mix, without supplementation (Invitrogen, Waltham, MA, cat. 11765054), 100 U/mL penicillin-streptomycin (Invitrogen, cat. 15140122), and 2.5% Matrigel (Corning Inc., Corning, NY, cat. 354248) for the first three passages. […]
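Also: spheroids exposed to agents for seven days before readout.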
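For viability, T/C in this document: 100% = DMSO vehicle control wells.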

Structure (SMILES)	pIC50 (curve of compound)	viability, T/C (compound 0.00316 µM)	viability, T/C (compound 0.01 µM)	viability, T/C (compound 0.0316 µM)	viability, T/C (compound 0.1 µM)	viability, T/C (compound 0.316 µM)	viability, T/C (compound 1 µM)	viability, T/C (compound 0.00949 µM)	viability, T/C (compound 0.03 µM)	viability, T/C (compound 0.0949 µM)	viability, T/C (compound 0.3 µM)	further results
CC(C)CC(NC(=O)CNC(=O)c1cc(Cl)ccc1Cl)B1OC(=O)CC(CC(=O)O)(C(=O)O)O1 (stereo unspecified)	9.20 and 9.09	4.47% and 4.31%	2.14% and 2%	1.69% and 1.05%	1.35% and 1.12%							viability, T/C (compound 0.000316 µM): 88.8% and 103%; viability, T/C (compound 0.001 µM): 24.5% and 38.9%
CC1(C)CCC(CN2CCN(c3ccc(C(=O)NS(=O)(=O)c4ccc(NCC5CCOCC5)c([N+](=O)[O-])c4)c(Oc4cnc5[nH]ccc5c4)c3)CC2)=C(c2ccc(Cl)cc2)C1	5.34 and 5.80			98.4% and 106%	88.2% and 103%	95.9% and 91.1%	84.3% and 68.4%					viability, T/C (compound 3.16 µM): 67.7% and 24.9%; viability, T/C (compound 10 µM): 13.5% and 0.24%
CC1COCCN1c1cc(-c2ccnn2C)c2ccnc(-c3ccn[nH]3)c2n1 (stereo unspecified)	7.88 and > 8.50	104% and 25.4%	61.4% and 14.9%	14.5% and 8.01%	8.8% and 6.27%	7.72% and 5.55%	5.78% and 4.24%					
CC1COCCN1c1cc(C2(S(C)(=N)=O)CC2)nc(-c2ccnc3[nH]ccc23)n1 (stereo unspecified)	6.43 and 6.01			106% and 107%	91.2% and 108%	57% and 96.7%	14.8% and 49.8%					viability, T/C (compound 3.16 µM): 10.1% and 11.9%; viability, T/C (compound 10 µM): 10.6% and 11.5%
CCN(c1cc(-c2ccc(CN3CCOCC3)cc2)cc(C(=O)NCc2c(C)cc(C)[nH]c2=O)c1C)C1CCOCC1	< 5.52 and 6.46							91.2% and 96.2%	100% and 97.8%	93.4% and 87.5%	91.6% and 50.8%	viability, T/C (compound 0.949 µM): 76.7% and 26.2%; viability, T/C (compound 3 µM): 68.7% and 10%
CC[C@@]1(O)C(=O)OCc2c1cc1n(c2=O)Cc2cc3c(CN(C)C)c(O)ccc3nc2-1	8.67 and 8.56	32.5% and 43.5%	10.2% and 9.41%	6.03% and 5.47%	3.25% and 3.14%							viability, T/C (compound 0.000316 µM): 105% and 95.3%; viability, T/C (compound 0.001 µM): 84.7% and 94.4%
CCc1c2c(nc3ccc(O)cc13)-c1cc3c(c(=O)n1C2)COC(=O)[C@]3(O)CC	> 9.02							1.82% and 1.28%	1.29% and 1.41%	1.48% and 2.01%	1.75% and 2.19%	viability, T/C (compound 0.000949 µM): 4.32% and 3.69%; viability, T/C (compound 0.003 µM): 2.63% and 2.24%
COc1cc(C2c3cc4c(cc3C(OC3OC5COC(C)OC5C(O)C3O)C3COC(=O)C23)OCO4)cc(OC)c1O (stereo unspecified)	7.04 and 7.28							93.8% and 95.9%	85.4% and 73.6%	48.8% and 24.1%	13.5% and 6.74%	viability, T/C (compound 0.949 µM): 7.1% and 4.19%; viability, T/C (compound 3 µM): 4.85% and 3.34%
COc1cc(Nc2ncc3c(n2)-c2ccc(Cl)cc2C(c2c(F)cccc2OC)=NC3)ccc1C(=O)O	7.76 and 8.21	81.5% and 59.7%	63.8% and 43.1%	35.4% and 41.2%	40.7% and 45.3%	31.1% and 40.4%	31.7% and 39.1%					
COc1ccc([C@@H](O)c2cc(-c3ncnc4cc(N5CCOCC5)ccc34)c(F)cc2Cl)nn1	6.42 and 6.13			91.6% and 95.8%	79.4% and 83.2%	53.7% and 74.8%	29.1% and 41.5%					viability, T/C (compound 3.16 µM): 9.45% and 15%; viability, T/C (compound 10 µM): 6.34% and 4.43%
Cn1ncnc1C1c2n[nH]c(=O)c3cc(F)cc(c23)NC1c1ccc(F)cc1 (stereo unspecified)	< 7.00	101% and 98.2%	94.4% and 94.1%	97.8% and 78.5%	89% and 77.8%							viability, T/C (compound 0.000316 µM): 97.2% and 97.6%; viability, T/C (compound 0.001 µM): 93.6% and 102%
NC1CC1c1ccc(-c2cccc(O)c2)cc1 (stereo unspecified)							113% [middle of 25 runs]					pIC50 (compound alone, run of 02/01/2022): < 5.00
NC1CCC(NC2CC2c2ccccc2)CC1 (stereo unspecified)						106% (2×) and 102%						viability, T/C (compound 3.16 µM): 103% [middle of 25 runs]; pIC50 (compound alone, run of 01/18/2022): < 5.00
Nc1ccn(C2OC(CO)C(O)C2(F)F)c(=O)n1 (stereo unspecified)	> 9.02							4.99% and 4.4%	4% and 4.8%	4.25% and 4.46%	4.05% and 4.24%	viability, T/C (compound 0.000949 µM): 5.35% and 15%; viability, T/C (compound 0.003 µM): 5.18% and 4.23%
Nc1ncn(C2CC(O)C(CO)O2)c(=O)n1 (stereo unspecified)	7.67 and 7.05	88.2% and 96.1%	59% and 91.5%	47.1% and 75.4%	32.5% and 45.5%	27.8% and 37.1%	23.9% and 27.6%					
Nc1ncn(C2CC(O)C(CO)S2)c(=O)n1 (stereo unspecified)	7.80 and 7.81							64.8% and 63.6%	33.8% and 29.8%	16.8% and 11.8%	8.91% and 5.28%	viability, T/C (compound 0.000949 µM): 104% and 92.4%; viability, T/C (compound 0.003 µM): 84% and 91.7%
O=C(C=Cn1cnc(-c2cc(C(F)(F)F)cc(C(F)(F)F)c2)n1)NNc1cnccn1	> 8.50	19.9% and 22.1%	8.55% and 22.4%	6.32% and 7.96%	3.87% and 4.72%	2.92% and 3.05%	2.37% and 2.41%					

The next lines start with results.

pIC50 (curve of compound)	Structure (SMILES)	viability, T/C (compound 0.00316 µM)	viability, T/C (compound 0.01 µM)	viability, T/C (compound 0.0316 µM)	viability, T/C (compound 0.1 µM)	viability, T/C (compound 0.316 µM)	viability, T/C (compound 1 µM)	viability, T/C (compound 0.00949 µM)	viability, T/C (compound 0.03 µM)	viability, T/C (compound 0.0949 µM)	viability, T/C (compound 0.3 µM)	further results
> 9.50	CC(C)CC(NC(=O)C(Cc1ccccc1)NC(=O)c1cnccn1)B(O)O (stereo unspecified)	1.14% and 0.84%	0.78% and 0.64%	0.63% and 0.42%	0.67% and 0.41%							viability, T/C (compound 0.000316 µM): 9.44% and 1.92%; viability, T/C (compound 0.001 µM): 1.9% and 1.46%
< 5.00	CC(C)c1c(-c2ccccc2)nc2c(C#N)c[nH]n2c1=O			97% and 109%	105% and 109%	101% and 104%	95.7% and 105%					viability, T/C (compound 3.16 µM): 97.2% and 95.9%; viability, T/C (compound 10 µM): 85.2% and 82.5%
7.15 and 7.29	NS(=O)(=O)OCC1CC(n2ccc3c(NC4CCc5ccccc54)ncnc32)CC1O (stereo unspecified)							97.7% and 104%	98% and 68.5%	33.6% and 29.1%	18.3% and 11%	viability, T/C (compound 0.949 µM): 7.34% and 5.1%; viability, T/C (compound 3 µM): 4.71% and 4.35%
6.70 and 7.11	Nc1ccccc1NC(=O)c1ccc(CNC(=O)OCc2cccnc2)cc1							92.5% and 80.8%	83% and 67.2%	63.3% and 46.6%	44.4% and 22.8%	viability, T/C (compound 0.949 µM): 17.9% and 5.31%; viability, T/C (compound 3 µM): 5.6% and 3.19%
6.93 and 7.28	O=C(C=Cc1cccc(S(=O)(=O)Nc2ccccc2)c1)NO							81.2% and 75%	71.6% and 70.5%	58.6% and 19.1%	17.8% and 2.96%	viability, T/C (compound 0.949 µM): 3.74% and 0.75%
5.45 and 5.17	O=C(c1cc(Cc2n[nH]c(=O)c3ccccc23)ccc1F)N1CCN(C(=O)C2CC2)CC1			94.6% and 101%	97.8% and 94.5%	78.8% and 90.7%	65.8% and 85.2%					viability, T/C (compound 3.16 µM): 53.2% and 64%; viability, T/C (compound 10 µM): 38.9% and 42.3%
